Results as given in ChEMBL document CHEMBL1201862, “PubChem BioAssay data set” (2004).
Activity calls are given as the source filed them.

What was measured:
Protein skinhead-1 = molecular target: T1, Protein skinhead-1 (Caenorhabditis elegans, UniProt P34707); format: functional
T1 sequence (P34707 whole entry): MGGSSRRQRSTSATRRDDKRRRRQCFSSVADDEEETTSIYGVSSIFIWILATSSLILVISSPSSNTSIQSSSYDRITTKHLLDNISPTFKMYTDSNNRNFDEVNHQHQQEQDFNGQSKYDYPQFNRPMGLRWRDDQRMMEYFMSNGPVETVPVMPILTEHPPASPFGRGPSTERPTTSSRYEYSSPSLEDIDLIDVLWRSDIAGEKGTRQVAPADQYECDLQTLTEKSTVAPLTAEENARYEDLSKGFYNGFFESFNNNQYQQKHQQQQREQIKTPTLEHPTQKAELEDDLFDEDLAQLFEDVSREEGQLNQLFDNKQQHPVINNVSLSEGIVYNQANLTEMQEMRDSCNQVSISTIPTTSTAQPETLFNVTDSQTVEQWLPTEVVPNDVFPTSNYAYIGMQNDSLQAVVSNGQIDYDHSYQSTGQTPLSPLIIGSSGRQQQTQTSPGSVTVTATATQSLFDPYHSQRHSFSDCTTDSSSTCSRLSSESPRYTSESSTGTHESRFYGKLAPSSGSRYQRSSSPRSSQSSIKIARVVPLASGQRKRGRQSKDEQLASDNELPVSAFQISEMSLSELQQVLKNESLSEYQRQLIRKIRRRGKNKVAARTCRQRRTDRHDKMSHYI

cells = format: functional, cell-based
[1] = molecular target: T2, Nuclear receptor subfamily 0 group B member 1 (Homo sapiens, UniProt P51843); format: functional, cell-based;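 also: HEK293T cells transfected with SF-1 and DAX-1 plus StAR promoter luciferase reporter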
T2 sequence (P51843 whole entry): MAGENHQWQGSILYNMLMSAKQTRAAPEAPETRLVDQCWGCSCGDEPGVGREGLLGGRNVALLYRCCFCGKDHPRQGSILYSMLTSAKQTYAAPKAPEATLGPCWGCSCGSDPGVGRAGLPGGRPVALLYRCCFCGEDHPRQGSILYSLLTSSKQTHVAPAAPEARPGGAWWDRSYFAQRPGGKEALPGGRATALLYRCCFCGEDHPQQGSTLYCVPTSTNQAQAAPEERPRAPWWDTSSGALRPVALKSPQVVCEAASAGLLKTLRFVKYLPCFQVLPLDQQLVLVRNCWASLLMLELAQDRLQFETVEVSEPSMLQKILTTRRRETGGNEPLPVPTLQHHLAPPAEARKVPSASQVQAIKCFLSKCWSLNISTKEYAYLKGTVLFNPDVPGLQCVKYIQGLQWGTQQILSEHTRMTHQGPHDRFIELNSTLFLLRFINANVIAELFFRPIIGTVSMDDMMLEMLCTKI

[2] = activation of miR-122 Renilla sensor silencing – cell-based, Huh7 psiCHECK-miR122, Renilla luciferase, cherry-picked, dose response (AID 651956); format: functional;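 also: huh7 hepatoma cells stably carrying a psiCHECK-2 miR-122 sensor plasmid; renilla luciferase signal reporting endogenous miR-122 activity after 48 h compound exposure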
[3] = blockers of HIV-1 envelope-mediated cell-cell fusion – cherry-pick, dose response (AID 652057); format: functional, cell-based
[4] = blockers of HIV-1 ZM109 envelope-driven cell-cell fusion – HeLa effector, CEM target cells, luciferase, cherry-pick, dose response (AID 652058); format: functional, cell-based;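 also: luciferase signal from HIV-1 Env mediated cell-cell fusion of effector and target cells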
[5] = off-target signal loss in HeLa-CEM21 co-culture – HeLa F-luc CTL cells, cherry-picked, counter-screen for HIV-1 Env fusion inhibitor project, dose response (AID 652040); format: functional, cell-based;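 also: potency for signal decrease marking cytotoxic or nonspecific inhibition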
[6] = HIV-1 AD8 envelope cell-cell fusion blockers – cherry-pick, dose response (AID 652062); format: functional, cell-based;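 also: luciferase signal from cell-cell fusion driven by HIV-1 clade B AD8 Env; potency is for inhibitors of fusion seen as a drop in luminescence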
[7] = molecular target: T3, Low molecular weight phosphotyrosine protein phosphatase (Homo sapiens, UniProt P24666); format: functional; settings: read-out: IC50_Mean
T3 sequence (P24666 whole entry): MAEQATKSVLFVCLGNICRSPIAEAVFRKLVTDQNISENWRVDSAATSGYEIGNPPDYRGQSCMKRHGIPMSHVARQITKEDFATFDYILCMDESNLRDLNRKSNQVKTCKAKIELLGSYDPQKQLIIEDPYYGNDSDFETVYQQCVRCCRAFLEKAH

[8] = molecular target: T3, Low molecular weight phosphotyrosine protein phosphatase; format: functional; settings: read-out: IC50_Mean; remark: listed apart in the source
[9] = viability of PTEN-deleted HCT116 cells – cell-based, HCT116 PTEN knockout, dose response (AID 1047); format: functional;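 also: HCT116 colon tumor cells with PTEN knocked out; cells exposed to compound for 60 hours before readout; potency for loss of cell viability measured by luminescence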
[10] = viability of HCT116 lacking mutant beta-catenin – cell-based, human colon tumor, dose response (AID 1045); format: functional;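 also: HCT116 colon tumor cells with beta catenin knocked out; cells exposed to compound for 60 hours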
[11] = Luminescence Cell-Based Dose Retest to Confirm Inhibitors of Cancer Stem Cells. [Related pubchem assays (depositor defined):AID2717, AID2721]; format: functional; settings: Homo sapiens
[12] = molecular target: T4, Hepatocyte nuclear factor 4-alpha (Homo sapiens, UniProt P41235); format: functional, cell-based;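 also: biochemical luminescence-based dose-response counterscreen measuring inhibition of HNF4 dimerization, run alongside a screen for blockers of ABHD5–perilipin-5 interaction; split luciferase complementation of HNF4 fusion proteins in cell lysate measuring dimerization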
T4 sequence (P41235 whole entry): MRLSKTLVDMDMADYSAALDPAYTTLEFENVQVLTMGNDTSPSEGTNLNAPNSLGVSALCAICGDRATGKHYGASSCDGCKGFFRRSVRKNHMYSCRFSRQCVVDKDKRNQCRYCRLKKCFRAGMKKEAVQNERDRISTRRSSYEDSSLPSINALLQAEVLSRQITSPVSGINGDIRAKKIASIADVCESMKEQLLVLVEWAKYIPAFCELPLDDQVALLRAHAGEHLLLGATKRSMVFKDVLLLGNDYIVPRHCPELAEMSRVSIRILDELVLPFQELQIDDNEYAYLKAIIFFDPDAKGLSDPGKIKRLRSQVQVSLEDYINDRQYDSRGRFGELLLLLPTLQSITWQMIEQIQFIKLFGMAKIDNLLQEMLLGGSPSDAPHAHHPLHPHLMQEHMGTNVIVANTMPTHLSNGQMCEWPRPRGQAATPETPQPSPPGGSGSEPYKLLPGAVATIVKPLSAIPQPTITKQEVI

[13] = viability loss in HeLa cells – cytotoxicity control for MgcRacGAP inhibitor project, dose response (AID 624300); format: functional
[14] = molecular target: T5, DNA repair protein RAD52 homolog (Homo sapiens, UniProt P43351); format: functional, biochemical
T5 sequence (P43351 whole entry): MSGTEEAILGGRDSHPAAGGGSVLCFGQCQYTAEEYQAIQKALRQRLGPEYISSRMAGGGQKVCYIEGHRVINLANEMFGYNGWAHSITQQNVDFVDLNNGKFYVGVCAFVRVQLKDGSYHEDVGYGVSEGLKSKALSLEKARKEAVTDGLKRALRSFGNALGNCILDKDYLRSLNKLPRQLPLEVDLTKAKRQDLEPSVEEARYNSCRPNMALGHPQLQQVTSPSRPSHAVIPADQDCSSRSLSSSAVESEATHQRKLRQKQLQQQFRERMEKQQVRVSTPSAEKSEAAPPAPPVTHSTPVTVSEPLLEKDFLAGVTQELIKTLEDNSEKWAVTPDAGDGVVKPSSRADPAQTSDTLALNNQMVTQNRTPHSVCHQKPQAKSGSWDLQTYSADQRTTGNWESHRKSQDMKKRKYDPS

Paired box protein Pax-8 = Paired box protein Pax-8 (Homo sapiens, UniProt Q06710); experiment: PAX8 transcriptional activity inhibition in RMG-I – RMG-I cells, luciferase, cherry-pick, dose response (AID 687027); format: functional, cell-based;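 also: luciferase reporter driven by Pax8 target thyroperoxidase promoter measured by SteadyGlo luminescence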
[15] = general cell-killing toxicity readout – plate reader, dry powder samples, cytotoxicity control for PAX8 inhibitor project, dose response (AID 743021); format: functional, cell-based

Chain of Paired box protein Pax-8 (Q06710 whole entry): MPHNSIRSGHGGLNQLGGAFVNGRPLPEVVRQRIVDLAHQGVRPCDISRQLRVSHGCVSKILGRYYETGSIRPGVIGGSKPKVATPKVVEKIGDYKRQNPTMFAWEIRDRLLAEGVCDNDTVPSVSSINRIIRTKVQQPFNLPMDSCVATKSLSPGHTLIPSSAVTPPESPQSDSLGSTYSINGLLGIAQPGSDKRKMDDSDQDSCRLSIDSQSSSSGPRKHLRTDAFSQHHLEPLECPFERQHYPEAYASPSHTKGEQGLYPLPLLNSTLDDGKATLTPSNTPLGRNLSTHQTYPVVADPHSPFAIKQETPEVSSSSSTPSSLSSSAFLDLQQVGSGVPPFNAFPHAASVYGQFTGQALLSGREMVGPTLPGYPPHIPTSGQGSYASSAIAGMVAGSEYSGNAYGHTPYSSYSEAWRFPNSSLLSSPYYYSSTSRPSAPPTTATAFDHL

With `O=C(/C(=C/Nc1ccc(Br)cc1)C(=O)C(F)(F)F)c1ccco1` the IC50 (Protein skinhead-1) was 27.2 µM (active), the IC50 (cells) was > 67.5 µM (inactive) and the IC50 [1] was > 67.5 µM (inactive).

In the case of `COC(=O)C[C@@H]1CC[C@@H]2[C@H](COc3ccc(NC(=O)Nc4cccc(F)c4)cc3C(=O)N2C)O1`, the AC50 [2] is reported as 40.1 µM (active).

For `COCC(=O)N(C)C[C@H]1[C@H](c2ccccc2)[C@@H](CO)N1C(=O)NC(C)C`, the AC50 [2] was 50.3 µM (active).

In the case of `C=C1CCN([C@@H](Cc2ccccc2)C(=O)Nc2ccc(OC)cc2)S(=O)(=O)c2ccccc21`, the AC50 [3] is reported as 0.923 µM (active), the AC50 [4] is reported as 0.848 µM (active) and the AC50 [5] is reported as 1.31 µM (active). For the same compound, the AC50 [6] was 2.03 µM (active).

In the case of `CN1CCc2c(sc(/N=C/c3c[nH]c4ccccc34)c2C(N)=O)C1`, the IC50 [7] is reported as > 80 µM (inactive) and the IC50 [8] is reported as 57.2 µM (inactive).

In the case of `O=C/C(=N\Nc1ccc(Cl)cc1)C(=O)c1ccncc1`, the EC50 [9] is reported as 116 µM (active), the EC50 [10] is reported as 42.2 µM (active) and the AC50 [11] is reported as 5.23 µM (active). For the same compound, the IC50 [12] was 28.9 µM (inactive).

In the case of `COc1ccc2cc(CNCCOCCOCCNCc3ccc4cc(OC)ccc4c3)ccc2c1`, the CC50 [13] is reported as 9.1 µM (active), the AC50 [14] is reported as 2.45 µM (active) and the AC50 (Paired box protein Pax-8) is reported as 19.1 µM (active). For the same compound, the AC50 [15] was 20.3 µM (active).
